Laboratory results reported in ChEMBL document CHEMBL1201862, “PubChem BioAssay data set” (2004).
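Dose response: 5 concentrations. Exposure: 48 h. Format: 96-well plates. Endpoint: linear interpolation; highest concentration if not reached. Abbreviation: GI50, concentration required for 50% inhibition of growth.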 Active and inactive are the calls of the source. Rule as the data show it: active = GI50 up to about 1.1 µM and inactive = higher.

Experiments:
Experiment in all cases: NCI anticancer screen, dose series, 48 h
ACHN = system: ACHN
CCRF-CEM = system: CCRF-CEM
EKVX = system: EKVX
HCC 2998 = system: HCC 2998
HL-60 = system: HL-60
HT-29 = system: HT-29
K562 = system: K562
KM12 = system: KM12
MCF7 = system: MCF7
NCI-H23 = system: NCI-H23
NCI-H522 = system: NCI-H522
OVCAR-3 = system: OVCAR-3
OVCAR-4 = system: OVCAR-4
PC-3 = system: PC-3
SK-MEL-28 = system: SK-MEL-28
SN12C = system: SN12C
SNB-75 = system: SNB-75
T47D = system: T47D
UO-31 = system: UO-31
A498 = system: A498

| SMILES | GI50 (ACHN) | GI50 (CCRF-CEM) | GI50 (EKVX) | GI50 (HCC 2998) | GI50 (HL-60) | GI50 (HT-29) | GI50 (K562) | GI50 (KM12) | GI50 (MCF7) | GI50 (NCI-H23) | GI50 (NCI-H522) | GI50 (OVCAR-3) | GI50 (OVCAR-4) | GI50 (PC-3) | GI50 (SK-MEL-28) | GI50 (SN12C) | GI50 (SNB-75) | GI50 (T47D) | GI50 (UO-31) | GI50 (A498) |
| --- | --- | --- | --- | --- | --- | --- | --- | --- | --- | --- | --- | --- | --- | --- | --- | --- | --- | --- | --- | --- |
| CCN(CC)CCCNc1nc(=O)[nH]c(C)c1C(=O)Nc1cccc2cc3ccccc3cc12 | > 100 µM (inactive) | > 100 µM (inactive) | > 100 µM (inactive) | > 100 µM (inactive) | > 100 µM (inactive) | > 100 µM (inactive) | > 100 µM (inactive) | 45.9 µM (inactive) | > 100 µM (inactive) | > 100 µM (inactive) | 85.3 µM (inactive) | > 100 µM (inactive) | > 100 µM (inactive) | > 100 µM (inactive) | > 100 µM (inactive) | > 100 µM (inactive) | > 100 µM (inactive) | > 100 µM (inactive) | > 100 µM (inactive) |  |
| CN(C)c1ccc(/C=C/c2ccc3ccccc3[n+]2C)cc1 | 5.62 µM (inactive) | 1.66 µM (inactive) | 1.62 µM (inactive) | 4.13 µM (inactive) | 1.34 µM (inactive) | 3.37 µM (inactive) | 0.891 µM (active) | 3.42 µM (inactive) | 1.64 µM (inactive) | 1.48 µM (inactive) |  | 2.97 µM (inactive) |  | 1.57 µM (inactive) | 3.87 µM (inactive) | 2.96 µM (inactive) |  | 1.63 µM (inactive) | 2.07 µM (inactive) | 20.1 µM (inactive) |
| Cc1ccc(C2=Nc3cccc4cccc(c34)N2)cc1 | > 100 µM (inactive) | > 100 µM (inactive) | > 100 µM (inactive) | > 100 µM (inactive) | > 100 µM (inactive) | > 100 µM (inactive) | > 100 µM (inactive) | > 100 µM (inactive) | > 100 µM (inactive) | > 100 µM (inactive) | > 100 µM (inactive) | > 100 µM (inactive) | > 100 µM (inactive) | > 100 µM (inactive) | > 100 µM (inactive) | > 100 µM (inactive) | > 100 µM (inactive) | > 100 µM (inactive) | > 100 µM (inactive) |  |
| CC1(c2cccc(Cl)c2)CC(c2cccc(Cl)c2)=C(C#N)C(=C(C#N)C#N)N1 (configuration not stated) | 17.8 µM (inactive) | 2.92 µM (inactive) | 22.1 µM (inactive) | 15.8 µM (inactive) | 18.4 µM (inactive) | 27.4 µM (inactive) | 14.3 µM (inactive) | 18 µM (inactive) | 20.6 µM (inactive) | 17.4 µM (inactive) |  | 10.3 µM (inactive) | 14.2 µM (inactive) | 17.6 µM (inactive) | 20.7 µM (inactive) | 19.4 µM (inactive) | 19.1 µM (inactive) | 13.2 µM (inactive) | 15.7 µM (inactive) | 20.3 µM (inactive) |
| O=C(c1ccccc1)C1C[C@H]2CO[C@H](c3ccccc3)N2C1=O (some centres not stated) | > 100 µM (inactive) | 99.3 µM (inactive) | > 100 µM (inactive) | > 100 µM (inactive) |  | > 100 µM (inactive) | > 100 µM (inactive) | > 100 µM (inactive) | > 100 µM (inactive) | > 100 µM (inactive) | > 100 µM (inactive) | > 100 µM (inactive) | > 100 µM (inactive) | > 100 µM (inactive) | > 100 µM (inactive) | > 100 µM (inactive) | > 100 µM (inactive) | > 100 µM (inactive) | > 100 µM (inactive) |  |
| Cc1ccc(C(=O)/C(C#N)=C/Nc2c(C)n(C)n(-c3ccccc3)c2=O)cc1 | > 100 µM (inactive) | > 100 µM (inactive) | > 100 µM (inactive) | > 100 µM (inactive) | > 100 µM (inactive) | > 100 µM (inactive) | > 100 µM (inactive) | > 100 µM (inactive) | > 100 µM (inactive) | > 100 µM (inactive) | > 100 µM (inactive) | > 100 µM (inactive) | > 100 µM (inactive) | > 100 µM (inactive) | > 100 µM (inactive) | > 100 µM (inactive) |  | > 100 µM (inactive) | > 100 µM (inactive) | > 100 µM (inactive) |
| CCNC(=S)N/N=C1\C(=O)Nc2ccc([N+](=O)[O-])cc21 | 31.2 µM (inactive) | 7.06 µM (inactive) | 50.5 µM (inactive) | 24.9 µM (inactive) | 92.9 µM (inactive) | 49.5 µM (inactive) | 52.7 µM (inactive) | 52.7 µM (inactive) | 41 µM (inactive) | > 100 µM (inactive) |  | 40.4 µM (inactive) | 25.6 µM (inactive) | 97.5 µM (inactive) | 48 µM (inactive) | 31.7 µM (inactive) |  | 31.6 µM (inactive) | 25.8 µM (inactive) | 22.9 µM (inactive) |
| N#Cc1c(-c2ccccc2)cc(-c2ccccc2)n(C2OCC(O)C(O)C2O)c1=S (configuration not stated) | 18.3 µM (inactive) | 16.4 µM (inactive) | 36.2 µM (inactive) |  |  | 23 µM (inactive) | 39 µM (inactive) | 12.9 µM (inactive) | 20.1 µM (inactive) | 21.3 µM (inactive) | 18.2 µM (inactive) | 22.3 µM (inactive) | 24.5 µM (inactive) | 14.6 µM (inactive) | 26.6 µM (inactive) | > 10 µM (inactive) | 24.9 µM (inactive) | 4.42 µM (inactive) | 19 µM (inactive) | 19.7 µM (inactive) |
| Clc1ccc(-c2nc(-c3ccc(Cl)cc3)[s+]s2)cc1 | 38.6 µM (inactive) | 37 µM (inactive) | 56.2 µM (inactive) | > 100 µM (inactive) |  | 48.1 µM (inactive) | 24.3 µM (inactive) | 42.1 µM (inactive) | 37.3 µM (inactive) | 78 µM (inactive) | 29.4 µM (inactive) | 51.2 µM (inactive) | 27.7 µM (inactive) | > 100 µM (inactive) | 59.7 µM (inactive) | 96.4 µM (inactive) |  | > 100 µM (inactive) | > 100 µM (inactive) | > 100 µM (inactive) |
| COc1cc2c(cc1OCCCCCCCCN1C(=O)c3cccc4cccc(c34)C1=O)N=C[C@@H]1CCCN1C2=O | 16 µM (inactive) | 2.82 µM (inactive) | 2.37 µM (inactive) | 14.2 µM (inactive) | 13.8 µM (inactive) | 15.7 µM (inactive) | 3.87 µM (inactive) | 16.3 µM (inactive) | 3.71 µM (inactive) | 15.1 µM (inactive) | 12 µM (inactive) | 11.1 µM (inactive) | 0.171 µM (active) | 7.45 µM (inactive) | 17.9 µM (inactive) | 22.2 µM (inactive) | 1.11 µM (active) | 73.6 µM (inactive) | 17.2 µM (inactive) |  |
| COc1ccc2oc(=O)c(-c3cc4c(c(C)n3)c(=O)oc3ccc(OC)cc34)cc2c1 | 27.2 µM (inactive) | > 100 µM (inactive) | > 100 µM (inactive) | > 100 µM (inactive) | > 100 µM (inactive) | 80.5 µM (inactive) | > 100 µM (inactive) | > 100 µM (inactive) | > 100 µM (inactive) | > 100 µM (inactive) | > 100 µM (inactive) | > 100 µM (inactive) |  | > 100 µM (inactive) | > 100 µM (inactive) | > 100 µM (inactive) | > 100 µM (inactive) | > 100 µM (inactive) | > 100 µM (inactive) |  |
| C=CCC1(C(=O)OC)CCC/C(=N\O)C1 (configuration not stated) | > 10 µM (inactive) | > 10 µM (inactive) |  | > 10 µM (inactive) | > 10 µM (inactive) | > 10 µM (inactive) | > 10 µM (inactive) | > 10 µM (inactive) | > 10 µM (inactive) | > 10 µM (inactive) | > 10 µM (inactive) | > 10 µM (inactive) | > 10 µM (inactive) | > 10 µM (inactive) | > 10 µM (inactive) | > 10 µM (inactive) | > 10 µM (inactive) | > 10 µM (inactive) |  |  |
| COc1ccc(NC(C)=O)c(C(=O)CCNC(C)=O)c1 | > 100 µM (inactive) | > 100 µM (inactive) | > 100 µM (inactive) |  | > 100 µM (inactive) | > 100 µM (inactive) |  | > 100 µM (inactive) | > 100 µM (inactive) | > 100 µM (inactive) | > 100 µM (inactive) | > 100 µM (inactive) | > 100 µM (inactive) | > 100 µM (inactive) |  | > 100 µM (inactive) | > 100 µM (inactive) | > 100 µM (inactive) | > 100 µM (inactive) | > 100 µM (inactive) |
| C#C[C@]1(O)CC[C@H]2[C@@H]3CCC4=C/C(=N/NC(=O)c5cccc6cc7ccccc7nc56)CC[C@@H]4[C@H]3CC[C@@]21CC | > 100 µM (inactive) | 40.5 µM (inactive) |  | > 100 µM (inactive) | 48 µM (inactive) | 41.4 µM (inactive) | > 100 µM (inactive) | > 100 µM (inactive) | 38.4 µM (inactive) | > 100 µM (inactive) |  | 75.5 µM (inactive) | > 100 µM (inactive) | 62.2 µM (inactive) | > 100 µM (inactive) | 35.4 µM (inactive) | > 100 µM (inactive) | 21 µM (inactive) |  | > 100 µM (inactive) |
| COc1cc(C2c3cc4c(cc3OC(NCCO)C2C)OCO4)cc(OC)c1O (configuration not stated) |  |  |  | 5.81 µM (inactive) |  | 7.11 µM (inactive) |  | 6.78 µM (inactive) | 9.29 µM (inactive) | 24.6 µM (inactive) | 3.27 µM (inactive) | 5.2 µM (inactive) | > 100 µM (inactive) | 8.79 µM (inactive) | 7.64 µM (inactive) | 4.6 µM (inactive) | 7.45 µM (inactive) | 18.2 µM (inactive) | 24.5 µM (inactive) |  |
